# Reference: US9050345B2, “Pyrrolotriazines as potassium ion channel inhibitors” (BRISTOL-MYERS SQUIBB COMPANY, priority 2013, dated 2015)
# Molecular target: T1, human KV 1.5 (IKur) (Homo sapiens, UniProt P22460)
# T1 construct: expressed in transfected cells
# Assay: block of IKur current in patch clamped L-929 cells expressing human Kv1.5
# Format: cell-based
# Conditions: 0.3 μM; patch clamped mammalian L-929 cells stably expressing human Kv1.5
# T1 sequence (P22460 whole entry): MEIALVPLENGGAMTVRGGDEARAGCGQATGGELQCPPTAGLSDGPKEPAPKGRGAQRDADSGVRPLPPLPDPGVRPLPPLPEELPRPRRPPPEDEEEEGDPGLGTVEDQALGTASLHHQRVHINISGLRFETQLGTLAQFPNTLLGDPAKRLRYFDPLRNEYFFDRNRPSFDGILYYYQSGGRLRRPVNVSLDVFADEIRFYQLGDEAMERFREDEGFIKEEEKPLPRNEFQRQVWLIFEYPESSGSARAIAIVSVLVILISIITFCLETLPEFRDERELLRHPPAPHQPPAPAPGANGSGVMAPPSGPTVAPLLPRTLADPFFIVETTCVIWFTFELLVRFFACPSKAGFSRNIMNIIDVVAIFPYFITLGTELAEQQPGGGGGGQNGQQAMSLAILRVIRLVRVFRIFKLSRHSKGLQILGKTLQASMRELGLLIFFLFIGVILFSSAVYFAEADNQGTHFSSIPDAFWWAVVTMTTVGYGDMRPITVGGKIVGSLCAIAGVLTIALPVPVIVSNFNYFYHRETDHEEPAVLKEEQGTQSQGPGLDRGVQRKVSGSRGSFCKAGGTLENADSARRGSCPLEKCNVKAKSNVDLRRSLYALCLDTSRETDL
row,SMILES,KV1_5% Inh L929 @0.3 μM [%]
1,"O=C(NCC(O)CO)c1cncc(-c2nc(NCc3ccccc3)c3c(-c4ccccc4)ccn3n2)c1 (centres unmarked) [Example 97, 5-(4-(benzylamino)-5-phenylpyrrolo [1,2-f][1,2,4]triazin-2-yl)-N-(2,3-dihydroxypropyl) nicotinamide]",96.86
2,"NS(=O)(=O)c1cncc(-c2nc(NCC3CCCCO3)c3c(-c4ccccc4)ccn3n2)c1 (centres unmarked) [Example 102, 5-(5-phenyl-4-((tetrahydro-2H-pyran-2-yl)methylamino)pyrrolo[1,2-f][1,2,4]triazin-2-yl)pyridine-3-sulfonamide]",98.89

# Same assay, conditions: L929, 0.3 μM; patch clamped mammalian L-929 cells stably expressing human Kv1.5; read-out: KV1_5% Inh L929 @0.3 μM
row,SMILES,inhibition at 0.3 µM [%]
1,"NC(=O)c1ccc(-c2nc(NCc3ccccc3)c3c(-c4ccccc4)ccn3n2)cn1 [Example 81, 5-(4-(benzylamino)-5-phenylpyrrolo [1,2-f][1,2,4]triazin-2-yl) picolinamide]",97
2,"O=C(O)c1ccc(-c2nc(NCc3ccccc3)c3c(-c4ccccc4)ccn3n2)cn1 [Example 82, 5-(4-(benzylamino)-5-phenylpyrrolo [1,2-f][1,2,4]triazin-2-yl) picolinic acid]",17.6
3,"NS(=O)(=O)c1cncc(-c2nc(NC(c3ccccc3)C(F)(F)F)c3c(-c4ccccc4)ccn3n2)c1 (centres unmarked) [Example 83, 5-(5-phenyl-4-(2,2,2-trifluoro-1-phenylethylamino)pyrrolo [1,2-f][1,2,4]triazin-2-yl)pyridine-3-sulfonamide]",89.8
4,"O=C(c1cncc(-c2nc(NCc3ccccc3)c3c(-c4ccccc4)ccn3n2)c1)N1CCOCC1 [Example 84, (5-(4-(benzylamino)-5-phenylpyrrolo [1,2-f][1,2,4]triazin-2-yl)pyridin-3-yl)(morpholino) methanone]",85.9
5,"COCCNC(=O)c1cncc(-c2nc(NCc3ccccc3)c3c(-c4ccccc4)ccn3n2)c1 [Example 85, 5-(4-(benzylamino)-5-phenylpyrrolo [1,2-f][1,2,4]triazin-2-yl)-N-(2-methoxyethyl) nicotinamide]",96.3
6,"COC(=O)c1cccc(-c2nc(NCc3ccccn3)c3c(-c4ccccc4)ccn3n2)c1 [Example 86, methyl 3-(5-phenyl-4-(pyridin-2-ylmethylamino)pyrrolo[1,2-f][1,2,4]triazin-2-yl)benzoate]",86.3
7,"O=C(O)c1cccc(-c2nc(NCc3ccccn3)c3c(-c4ccccc4)ccn3n2)c1 [Example 87, 3-(5-phenyl-4-(pyridin-2-ylmethylamino)pyrrolo [1,2-f][1,2,4]triazin-2-yl)benzoic acid]",91
8,"N#Cc1cncc(-c2nc(NC(c3ccccc3)C(F)(F)F)c3c(-c4ccccc4)ccn3n2)c1 (centres unmarked) [Example 88, 5-(5-phenyl-4-(-2-,2,2-trifluoro-1-phenylethylamino)pyrrolo [1,2-f][1,2,4]triazin-2-yl)nicotinonitrile]",27.2
9,"CCOC(=O)CCNC(=O)c1cncc(-c2nc(NCc3ccccc3)c3c(-c4ccccc4)ccn3n2)c1 [Example 89, ethyl 3-(5-(4-(benzylamino)-5-phenylpyrrolo [1,2-f][1,2,4]triazin-2-yl)nicotinamido) propanoate]",97
10,"CC1(C)OCC(CNC(=O)c2cncc(-c3nc(NCc4ccccc4)c4c(-c5ccccc5)ccn4n3)c2)O1 (centres unmarked) [Example 90, 5-(4-(benzylamino)-5-phenylpyrrolo [1,2-f][1,2,4]triazin-2-yl)-N-((2,2-dimethyl-1,3-dioxolan-4-yl)methyl)nicotinamide]",96
11,"CC(=O)NS(=O)(=O)c1cncc(-c2nc(NCc3ccccc3)c3c(-c4ccccc4)ccn3n2)c1 [Example 91, N-(5-(4-(benzylamino)-5-phenylpyrrolo [1,2-f][1,2,4]triazin-2-yl)pyridin-3-ylsulfonyl)acetamide]",61.7
12,"N#Cc1cc(-c2nc(NCc3ccccc3)c3c(-c4ccccc4)ccn3n2)ccn1 [Example 92, 4-(4-(benzylamino)-5-phenylpyrrolo [1,2-f][1,2,4]triazin-2-yl) picolinonitrile]",88.2
13,"COc1ncc(-c2nc(NCc3ccccc3)c3c(-c4ccccc4)ccn3n2)cc1S(=O)(=O)NC(C)(C)C [Example 93, 5-(4-(benzylamino)-5-phenylpyrrolo [1,2-f][1,2,4]triazin-2-yl)-N-tert-butyl-2-methoxypyridine-3-sulfonamide]",41
14,"COc1ncc(-c2nc(NCc3ccccc3)c3c(-c4ccccc4)ccn3n2)cc1S(N)(=O)=O [Example 94, 5-(4-(benzylamino)-5-phenylpyrrolo [1,2-f][1,2,4]triazin-2-yl)-2-methoxypyridine-3-sulfonamide]",95.8
15,"O=C(NCC(O)CO)c1cncc(-c2nc(NCc3ccccc3)c3c(-c4ccccc4)ccn3n2)c1 (centres unmarked) [Example 96, 5-(4-(benzylamino)-5-phenylpyrrolo [1,2-f][1,2,4]triazin-2-yl)-N-(2,3-dihydroxypropyl) nicotinamide]",95.7
16,"O=C(O)CCNC(=O)c1cncc(-c2nc(NCc3ccccc3)c3c(-c4ccccc4)ccn3n2)c1 [Example 98, 3-(5-(4-(benzylamino)-5-phenylpyrrolo [1,2-f][1,2,4]triazin-2-yl)nicotinamido) propanoic acid]",55.3
17,"O=C(O)/C=C/c1cncc(-c2nc(NCc3ccccc3)c3c(-c4ccccc4)ccn3n2)c1 [Example 99, (E)-3-(5-(4-(benzylamino)-5-phenylpyrrolo [1,2-f][1,2,4]triazin-2-yl)pyridin-3-yl)acrylic acid]",92.2

row,SMILES,inhibition at 0.3 µM [%]
1,"C1=C(c2nc(NCc3ccccc3)c3c(-c4ccccc4)ccn3n2)CCOC1 [Example 100, N-benzyl-2-(3,6-dihydro-2H-pyran-4-yl)-5-phenylpyrrolo [1,2-f][1,2,4] triazin-4-amine]",96.9
2,"NS(=O)(=O)c1cncc(-c2nc(NCC3CCCCO3)c3c(-c4ccccc4)ccn3n2)c1 (centres unmarked) [Example 101, 5-(5-phenyl-4-((tetrahydro-2H-pyran-2-yl)methylamino)pyrrolo [1,2-f][1,2,4]triazin-2-yl)pyridine-3-sulfonamide]",93.6
3,"O=C(c1cncc(-c2nc(NCc3ccccc3)c3c(-c4ccccc4)ccn3n2)c1)N(CCO)CCO [Example 103, 5-(4-(benzylamino)-5-phenylpyrrolo[1,2-f] [1,2,4]triazin-2-yl)-N, N-bis(2-hydroxyethyl) nicotinamide]",72.2
4,"NS(=O)(=O)c1cncc(-c2nc(NCc3ccccn3)c3c(-c4cccc(F)c4)ccn3n2)c1 [Example 104, 5-(5-(3-fluorophenyl)-4-(pyridin-2-ylmethylamino)pyrrolo[1,2-f][1,2,4]triazin-2-yl)pyridine-3-sulfonamide]",95.7
5,"COc1ccc(-c2ccn3nc(-c4cncc(S(N)(=O)=O)c4)nc(NCc4ccccn4)c23)cc1 [Example 105, 5-(5-(4-methoxyphenyl)-4-(pyridin-2-ylmethylamino)pyrrolo[1,2-f][1,2,4]triazin-2-yl)pyridine-3-sulfonamide]",89.3
6,"NS(=O)(=O)c1cncc(-c2nc(NCc3ccccn3)c3c(-c4ccc(N5CCOCC5)cc4)ccn3n2)c1 [Example 106, 5-(5-(4-morpholinophenyl)-4-(pyridin-2-ylmethylamino)pyrrolo[1,2-f][1,2,4]triazin-2-yl)pyridine-3-sulfonamide]",16
7,"N#Cc1ccc(-c2ccn3nc(-c4cncc(S(N)(=O)=O)c4)nc(NCc4ccccn4)c23)cc1 [Example 107, 5-(5-(-4-cyanophenyl)-4-(pyridin-2-ylmethylamino)pyrrolo[1,2-f][1,2,4]triazin-2-yl)pyridine-3-sulfonamide]",15.6
8,"NS(=O)(=O)c1cncc(-c2nc(NCc3cccnn3)c3c(-c4ccccc4)ccn3n2)c1 [Example 108, 5-(5-phenyl-4-(pyridazin-3-ylmethylamino)pyrrolo [1,2-f][1,2,4]triazin-2-yl)pyridine-3-sulfonamide]",72
9,"NC(=O)c1cccc(-c2nc(NCc3ccccn3)c3c(-c4ccccc4)ccn3n2)c1 [Example 109, 3-(5-phenyl-4-(pyridin-2-ylmethylamino)pyrrolo[1,2-f][1,2,4]triazin-2-yl)benzamide]",98.2
10,"CS(=O)(=O)Nc1cncc(-c2nc(NCc3ccccn3)c3c(-c4ccc(F)cc4)ccn3n2)c1 [Example 110, N-(5-(5-(4-fluorophenyl)-4-(pyridin-2-ylmethylamino)pyrrolo[1,2-f] [1,2,4]triazin-2-yl)pyridin-3-yl) methanesulfonamide]",81.4
11,"COc1ccc(-c2nc(NCc3ccccn3)c3c(-c4ccccc4)ccn3n2)cn1 [Example 111, 2-(6-methoxypyridin-3-yl)-5-phenyl-N-(pyridin-2-ylmethyl)pyrrolo[1,2-f] [1,2,4]triazin-4-amine]",97
12,"NC(=O)c1ccc(-c2nc(NCc3ccccn3)c3c(-c4ccccc4)ccn3n2)cc1 [Example 112, 4-(5-phenyl-4-(pyridin-2-ylmethylamino)pyrrolo[1,2-f][1,2,4]triazin-2-yl)benzamide]",99
13,"CC(=O)Nc1ccc(NC(=O)c2nc(NCc3ccccc3)c3c(-c4ccccc4)ccn3n2)cc1 [Example 113, N-(4-acetamidophenyl)-4-(benzylamino)-5-phenylpyrrolo[1,2-f] [1,2,4] triazine-2-carboxamide]",88.4
14,"NC(=O)c1ccccc1NC(=O)c1nc(NCc2ccccc2)c2c(-c3ccccc3)ccn2n1 [Example 114, 4-(benzylamino)-N-(2-carbamoylphenyl)-5-phenylpyrrolo [1,2-f][1,2,4] triazine-2-carboxamide]",35.2
15,"NC(=O)c1ccc(NC(=O)c2nc(NCc3ccccc3)c3c(-c4ccccc4)ccn3n2)cc1 [Example 115, 4-(benzylamino)-N-(4-carbamoylphenyl)-5-phenylpyrrolo [1,2-f][1,2,4] triazine-2-carboxamide]",90
16,"NS(=O)(=O)c1cccc(NC(=O)c2nc(NCc3ccccc3)c3c(-c4ccccc4)ccn3n2)c1 [Example 116, 4-(benzylamino)-5-phenyl-N-(3-sulfamoylphenyl) pyrrolo[1,2-f][1,2,4] triazine-2-carboxamide]",89.4
